pKi: −log10 of the molar value. Where “and” joins values, the source holds several entries; their conditions need not be identical. Equal entries are not always repeated. Where two headings read alike, the source gives them in different places. Peptide text beside a SMILES is read from it. * marks the point of attachment. Cbz = O=C(OCc1ccccc1)*
Columns and labels:
CatL [1] = target: T1, CatL (Homo sapiens, UniProt P07711, T223A); assay: CatL inhibition assay (Ki), substrate Z-RR-AMC; type: biochemical
T1 construct: made in house; host or cells: Komagataella pastoris strain GS115
T1 sequence (P07711 114-333 T223A): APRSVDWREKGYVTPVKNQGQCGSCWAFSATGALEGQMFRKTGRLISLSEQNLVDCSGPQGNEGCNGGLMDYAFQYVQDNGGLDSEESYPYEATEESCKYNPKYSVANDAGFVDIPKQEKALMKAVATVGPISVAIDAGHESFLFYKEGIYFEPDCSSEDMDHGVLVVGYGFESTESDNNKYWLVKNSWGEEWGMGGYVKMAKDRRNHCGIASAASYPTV
Method: Experiments were performed in a solution of 50 mM sodium acetate, pH 4.0, 50 mM NaCl, 0.1% PEG 6000, and 5 mM DTT. Distinct assays with epoxide inhibitors at pH 6.0 were performed in 50 mM sodium phosphate buffer, 50 mM NaCl, 5 mM DTT, 0.1% PEG 6000, adjusted to pH 6.0.
M1000 pro plate reader (Tecan), the fluorescent peptide substrate Z-RR-AMC, and excitation and emission wavelengths of 370 and 460 nm, respectively.
At first, the inhibitor concentration span was optimized for each inhibitor and the assay buffer. For this initial screening, CatL (5 nM) was mixed with different concentrations of inhibitors (1 nM–50 μM) to determine the range of their inhibition. […] Reaction data were fitted to the […] in GraphPad Prism 9 software: Y = bottom + (top – bottom)/(1 + 10^∧((log IC50 – X) × HillSlope)); X is the log of dose or concentration, Y is the response (fluorescence signal), decreasing as X increases, top and bottom are the plateaus in the same units as Y, log IC50 same log units as X, HillSlope is the slope factor or called the Hill slope.

CatL [2] = target: T1, CatL; assay: NanoDSF, thermal stability of CatL; type: binding
SARS-CoV-2 Mpro = SARS-CoV-2 Mpro (Severe acute respiratory syndrome coronavirus 2, UniProt P0DTD1); type: binding; settings: for ΔTm (for Mpro), 2:1 compound to protein mixing ratio: 8 µM Mpro, pH 7.5, 2% DMSO; for 2:1, Tm average (Mpro): 2:1 compound to protein
[3] = Cell viability assay (CellTiter-Blue); settings: African green monkey
[4] = 5 µM CatL, pH 5.0, 2% DMSO, 20:1

CC(C)(C)OC(=O)Nc1cccn([C@@H](CC2CC2)C(=O)N[C@@H](C[C@@H]2CCNC2=O)C(=O)C(=O)NCc2ccccc2)c1=O [13b, tert-Butyl N-[1-[(2S)-1-[[(2S)-4-(benzylamino)-3,4-dioxo-1-[(3S)-2-oxopyrrolidin-3-yl]butan-2-yl]amino]-3-cyclopropyl-1-oxopropan-2-yl]-2-oxopyridin-3-yl]carbamate]
Residual activity (Vi/V0) (CatL [1]; 13b 31.346 nM): 0.9675 and 0.9627 and 0.6897 and 0.9692 and 0.9864 and 0.9669
Residual activity (Vi/V0) (CatL [1]; 13b 52.243 nM): 0.8888 and 0.9182 and 0.9209 and 0.8812 and 0.9125
remaining activity at 0.052243 µM (CatL [1]; 13b 52.243 nM, read-out: Residual activity (Vi/V0)): 90.6%
Residual activity (Vi/V0) (CatL [1]; 13b 87.071 nM): 0.8265 and 0.8739 and 0.8771 and 0.8407 and 0.8552
remaining activity at 0.087071 µM (CatL [1]; 13b 87.071 nM, read-out: Residual activity (Vi/V0)): 84.2%
Residual activity (Vi/V0) (CatL [1]; 13b 145.119 nM): 0.7626 and 0.6965 and 0.7661 and 0.7352 and 0.7663
remaining activity at 0.145119 µM (CatL [1]; 13b 145.119 nM, read-out: Residual activity (Vi/V0)): 77.4%
Residual activity (Vi/V0) (CatL [1]; 13b 241.865 nM): 0.6661 and 0.7001 and 0.6736 and 0.645 and 0.6598
Residual activity (Vi/V0) (CatL [1]; 13b 403.108 nM): 0.5626 and 0.5615 and 0.5111 and 0.5683 and 0.5779
remaining activity at 0.403108 µM (CatL [1]; 13b 403.108 nM, read-out: Residual activity (Vi/V0)): 56.2%
Residual activity (Vi/V0) (CatL [1]; 13b 671.846 nM): 0.4836 and 0.4354 and 0.4683 and 0.4708 and 0.465
remaining activity at 0.671846 µM (CatL [1]; 13b 671.846 nM, read-out: Residual activity (Vi/V0)): 47.5%
Residual activity (Vi/V0) (CatL [1]; 13b 1119.744 nM): 0.4051 and 0.4054 and 0.4004 and 0.3916 and 0.3989
remaining activity at 1.11974 µM (CatL [1]; 13b 1119.744 nM, read-out: Residual activity (Vi/V0)): 38.3%
Residual activity (Vi/V0) (CatL [1]; 13b 1866.240 nM): 0.3283 and 0.3165 and 0.3193 and 0.3153 and 0.3192
remaining activity at 1.86624 µM (CatL [1]; 13b 1866.240 nM, read-out: Residual activity (Vi/V0)): 32.5%
Residual activity (Vi/V0) (CatL [1]; 13b 3110.400 nM): 0.258 and 0.2535 and 0.24 and 0.2503 and 0.2489
remaining activity at 3.1104 µM (CatL [1]; 13b 3110.400 nM, read-out: Residual activity (Vi/V0)): 24.7%
Residual activity (Vi/V0) (CatL [1]; 13b 5184.000 nM): 0.1828 and 0.1618 and 0.1725 and 0.1795 and 0.1597
Residual activity (Vi/V0) (CatL [1]; 13b 8640.000 nM): 0.1228 and 0.1221 and 0.1079 and 0.1237 and 0.1244
remaining activity at 8.64 µM (CatL [1]; 13b 8640.000 nM, read-out: Residual activity (Vi/V0)): 12.4%
Residual activity (Vi/V0) (CatL [1]; 13b 24000.000 nM): 0.04988 and 0.04656 and 0.04753 and 0.05569 and 0.04454
remaining activity at 24 µM (CatL [1]; 13b 24000.000 nM, read-out: Residual activity (Vi/V0)): 4.42%
pKi (CatL [1]; CatL, Z-RR-AMC, pH 4.0, 37 °C, read-out: Ki): 6.53
2:1, Tm average (CatL) (CatL [2]): 68.7 °C
20:1, Tm average (CatL) (CatL [2]): 76.7 °C
ΔTm (for CatL), 2:1 compound to protein mixing ratio (CatL [2]; pH 5): 5,6 ± 0,1 °C and 5.6 °C
ΔTm (for CatL), 20:1 compound to protein mixing ratio (CatL [2]; pH 5): 13,6 ± 0,1 °C and 13.6 °C
ΔTm (for Mpro), 2:1 compound to protein mixing ratio (SARS-CoV-2 Mpro): 15,7 ± 0,1 °C and 15.7 °C
2:1, Tm average (Mpro) (SARS-CoV-2 Mpro): 70.3 °C

CC(C)(C)OC(=O)NCC=O [BOCA, tert-Butyl N-2-oxoethylcarbamate]
ΔTm (for CatL), 20:1 compound to protein mixing ratio (CatL [2]; [4]): 4,4 ± 0,4 °C and 4.4 °C
2:1, Tm average (CatL) (CatL [2]; 2:1 compound to protein): 62.8 °C
20:1, Tm average (CatL) (CatL [2]; 20:1 compound to protein): 67.5 °C
ΔTm [K] for CatL, 2:1 ratio (CatL [2]; Table S1, 2:1 ratio): -0.3 ± 0.1 K
ΔTm (for Mpro), 2:1 compound to protein mixing ratio (SARS-CoV-2 Mpro): -0,3 ± 0,1 °C
ΔTm (for Mpro), 2:1 compound to protein mixing ratio (SARS-CoV-2 Mpro; listed as N-BOCAAA): -0.3 °C
2:1, Tm average (Mpro) (SARS-CoV-2 Mpro): 54.7 °C

CC(C)[C@H](NC(=O)OCc1ccccc1)C(=O)N[C@H](C=O)Cc1ccccc1 [CI-III, N-Cbz-Val-Phe-aldehyde] (Cbz-Val-Phe-aldehyde)
remaining activity at 0.000282 µM (CatL [1]; read-out: Residual activity (Vi/V0), CI-III 0.282 nM): 60.4%
remaining activity at 0.000404 µM (CatL [1]; read-out: Residual activity (Vi/V0), CI-III 0.404 nM): 45.4%
remaining activity at 0.000576 µM (CatL [1]; read-out: Residual activity (Vi/V0), CI-III 0.576 nM): 33.4%
remaining activity at 0.000824 µM (CatL [1]; read-out: Residual activity (Vi/V0), CI-III 0.824 nM): 23.1%
remaining activity at 0.001176 µM (CatL [1]; read-out: Residual activity (Vi/V0), CI-III 1.176 nM): 16.3%
remaining activity at 0.001681 µM (CatL [1]; read-out: Residual activity (Vi/V0), CI-III 1.681 nM): 10.8%
remaining activity at 0.002401 µM (CatL [1]; read-out: Residual activity (Vi/V0), CI-III 2.401 nM): 6.67%
remaining activity at 0.00343 µM (CatL [1]; read-out: Residual activity (Vi/V0), CI-III 3.430 nM): 4.1%
2:1, Tm average (CatL) (CatL [2]; 2:1 compound to protein): 75.2 °C
20:1, Tm average (CatL) (CatL [2]; 20:1 compound to protein): 81.2 °C
2:1, Tm average (Mpro) (SARS-CoV-2 Mpro): 54.5 °C

CC(C)[C@H](NC(=O)OCc1ccccc1)C(=O)N[C@H](C=O)Cc1ccccc1 [CIII] (Cbz-Val-Phe-aldehyde)
viability at 48 h, 1e-05 µM [3]: 95.8%
viability at 48 h, 0.0001 µM [3]: 95.4%
viability at 48 h, 0.001 µM [3]: 94.2%
viability at 48 h, 0.01 µM [3]: 95.3%
viability at 48 h, 0.1 µM [3]: 96%
viability at 48 h, 1 µM [3]: 98.9%
viability at 48 h, 10 µM [3]: 100%

CC(C)C[C@@H](C=O)NC(=O)[C@@H](NS(=O)(=O)c1ccc(F)cc1)C(C)C [CIVI]
viability at 48 h, 1e-05 µM [3]: 95.9%
viability at 48 h, 0.0001 µM [3]: 96.7%
viability at 48 h, 0.001 µM [3]: 93.8%
viability at 48 h, 0.01 µM [3]: 95.9%
viability at 48 h, 0.1 µM [3]: 95.1%
viability at 48 h, 1 µM [3]: 98.8%
viability at 48 h, 10 µM [3]: 98.3%

CCCC(NC(=O)C(CC(C)C)NC(=O)OCc1ccccc1)C(=O)C(=O)NCc1ccccn1 (stereo not shown) [CIXII]
viability at 48 h, 1e-05 µM [3]: 98.9%
viability at 48 h, 0.0001 µM [3]: 98.8%
viability at 48 h, 0.001 µM [3]: 98.3%
viability at 48 h, 0.01 µM [3]: 100%
viability at 48 h, 0.1 µM [3]: 98.8%
viability at 48 h, 1 µM [3]: 103%
viability at 48 h, 10 µM [3]: 106%

CC[C@@H](C)[C@H](NS(=O)(=O)c1cccc2ccccc12)C(=O)N[C@H](C=O)Cc1c[nH]c2ccccc12 [CLIIV]
viability at 48 h, 1e-05 µM [3]: 98.8%
viability at 48 h, 0.0001 µM [3]: 101%
viability at 48 h, 0.001 µM [3]: 98%
viability at 48 h, 0.01 µM [3]: 100%
viability at 48 h, 0.1 µM [3]: 98.7%
viability at 48 h, 1 µM [3]: 102%
viability at 48 h, 10 µM [3]: 101%

CN(C)C(=O)COC(=O)Cc1ccc(OC(=O)c2ccc(NC(=N)N)cc2)cc1 [Camostat]
ΔTm (for CatL), 20:1 compound to protein mixing ratio (CatL [2]; [4]): -0.2 °C
20:1, Tm average (CatL) (CatL [2]; 20:1 compound to protein): 62.9 °C
ΔTm (for Mpro), 2:1 compound to protein mixing ratio (SARS-CoV-2 Mpro): -0.4 °C
2:1, Tm average (Mpro) (SARS-CoV-2 Mpro): 54.6 °C

CCOC(=O)[C@H]1O[C@@H]1C(=O)N[C@@H](CC(C)C)C(=O)NCCC(C)C [E-64d, Ethyl (2S,3S)-3-[[(2S)-4-methyl-1-(3-methylbutylamino)-1-oxopentan-2-yl]carbamoyl]oxirane-2-carboxylate]
ΔTm (for CatL), 2:1 compound to protein mixing ratio (CatL [2]; 5 µM CatL, pH 5.0, 2% DMSO, 2:1): 4,5 ± 0,1 °C and 4.5 °C
ΔTm (for CatL), 20:1 compound to protein mixing ratio (CatL [2]; [4]): 11,7 ± 0,4 °C and 11.7 °C
2:1, Tm average (CatL) (CatL [2]; 2:1 compound to protein): 67.6 °C
20:1, Tm average (CatL) (CatL [2]; 20:1 compound to protein): 74.8 °C
ΔTm [K] for CatL, 2:1 ratio (CatL [2]; Table S1, 2:1 ratio): 4.5 ± 0.1 K
ΔTm (for Mpro), 2:1 compound to protein mixing ratio (SARS-CoV-2 Mpro): -0,3 ± 0,3 °C
ΔTm (for Mpro), 2:1 compound to protein mixing ratio (SARS-CoV-2 Mpro; listed as E-64d/Aloxistatin): -0.3 °C
2:1, Tm average (Mpro) (SARS-CoV-2 Mpro): 54.7 °C

CC(=O)N[C@@H](CC(C)C)C(=O)N[C@@H](CC(C)C)C(=O)N[C@H](C=O)CCCNC(=N)N [Leupeptin]
ΔTm (for Mpro), 2:1 compound to protein mixing ratio (SARS-CoV-2 Mpro): 1,2 ± 0,1 °C and 1.2 °C
2:1, Tm average (Mpro) (SARS-CoV-2 Mpro): 56.2 °C

Cc1ccc(S(=O)(=O)N[C@@H](Cc2ccccc2)C(=O)CCl)cc1 [TPCK, N-α-Tosyl-L-phenylalanyl chloromethyl ketone]
2:1, Tm average (CatL) (CatL [2]): 67.8 °C
ΔTm [K] for CatL, 2:1 ratio (CatL [2]): 4.7 ± 0.1 K
ΔTm (for CatL), 2:1 compound to protein mixing ratio (CatL [2]; pH 5): 4,7 ± 0,1 °C and 4.7 °C
ΔTm (for CatL), 20:1 compound to protein mixing ratio (CatL [2]; pH 5): 7,0 ± 0,1 °C and 7 °C

Source: article PMC11089505, “Structural Elucidation and Antiviral Activity of Covalent Cathepsin L Inhibitors” (Journal of Medicinal Chemistry, 2024)
